Bounds are passed on as bounds.

The results in this text go back to US9499493B2, “2,4-pyrimidinediamine compounds and their uses” (Rigel Pharmaceuticals, Inc., priority 2002, dated 2016).

Assay [1] can be described thus: Mouse model of allergic asthma (ovalbumin). Format: in vivo. The conditions noted are these: for methacoline-induced bronchocontriction: mouse, in vivo. The source says: Mice are sensitized to ovalbumin (chicken protein) in the presence of an adjuvant (Alum) by the intraperitoneal route on day 0 and day 7. One week later, mice are challenged intranasally with ovalbumin on Days 14, 15 and 16 (more stringent model) or on Day 14 (less stringent model). This sensitization and challenge regimen leads to airway hyperresponsiveness and inflammation in the lungs, which are two dominant characteristics of human allergic asthma. In the mouse model, the in vivo airway responses are measured using a whole body plethysmograph which determines the PENH (enhanced Pause, Buxco Electronics). The PENH is a dimensionless value comprised of the peak inspiratory flow (PIF), peak expiratory flow (PEF), time of inspiration, time of expiration and relaxation time, and is considered a validated parameter of airway responsiveness. Responses to allergen challenge (OVA) are compared with animals challenged with saline only. Twenty-four hours after challenge, mice are exposed to increasing doses of methacholine (muscarinic receptor agonist) which results in smooth muscle contraction. […] In addition, a cellular infiltrate in the airway is observed in ovalbumin challenged mice when compared with the saline challenged mice. This cellular infiltrate is mainly characterized by eosinophils, but a smaller influx of neutrophils and mononuclear cells is also present.
The use of this model for the evaluation of small molecule inhibitors of mast cell degranulation has been validated is several ways. First, using mast cell deficient mice (W/W^v) it has been shown that the ovalbumin-induced responses are dependent upon the presence of mast cells.

A further assay has as its system CHMC cells. Briefly: Phosphorylation of proteins downstream of Syk / LYN kinase in the FcεRI cascade, activated CHMC cells. Format: cell-based, human. To be noted: FIG. 10.
Assay [2] relates to cultured human mast cells (CHMC). Put plainly: CHMC low cell density IgE activation: tryptase assay. To be noted: anti-IgE. The format is cell-based. In outline: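 Cultured human mast cells (1000-1500 cells/well, donor-dependent) equilibrated 1 hr at 37° C, then stimulated with anti-IgE for 30 min at 37° C. Tryptase released into the supernatant is measured with a fluorogenic tryptase substrate after 30 min at room temperature.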

Assay [3] has the same test system. Put plainly: CHMC low cell density ionomycin activation: tryptase assay. Format: cell-based.
Assay [4] relates to bone marrow derived mast cells (BMMC). Put plainly: BMMC high cell density IgE activation: hexosaminidase. Format: cell-based, mouse. To be noted: anti-IgE, second part of TABLE 1, read-out: BMMC anti-IgE hexos. IC50. The protocol: (§1) After sensitizing, cells are counted, pelleted (1000 rpm, 5-10 minutes), and resuspended at 1-3×10^6 cells/ml in MT buffer. Add 100 ul of cell suspension to each well and 100 ul of compound dilutions. The final vehicle concentration is 0.5% DMSO. Incubate at 37° C. (5% CO2) for 1 hour. After 1 hour of compound treatment, stimulate cells with 6× stimulus (60 ng/ml DNP-BSA). Mix wells with the cells and allow plates to incubate at 37° C. (5% CO2) for one hour. After 1 hour incubation, pellet cells (10 minutes, 1000 RPM) and collect 200 ul per well of the supernatant, being careful not to disturb pellet, and transfer to a clean tube or 96-well plate. Place the supernatant plate on ice. During the 4-5 hour step (see next) perform the hexosiminidase assay. Resuspend cell pellet in 240 ul WEI-conditioned media containing 0.5% DMSO and corresponding concentration of compound. Incubate BMMC cells for 4-5 hours at 37° C. (5% CO2). After incubation, pellet cells (1000 RPM, 10 minutes) and collect 225 ul per well and place in −80° C. until ready to perform ELISAS. ELISAS are performed on appropriately diluted samples (determined empirically for each donor cell population so that the sample measurement falls within the standard curve) following the supplier's instructions.
Hexosaminidase assay: In a solid black 96-well assay plate, add 50 uL hexosaminidase substrate (4-methylumbelliferyl-N-acetyl-(3-D-glucosaminide; 2 mM) to each well. Add 50 uL of BMMC cell supernatant (see above) to the hexoseaminidase substrate, place at 37° C. for 30 minutes and read the plate at 5, 10, 15, and 30 minutes on a spectrophotometer.

Assay [5] shares this test system. Briefly: BMMC high cell density IgE activation: histamine. The format is cell-based, mouse. The conditions noted are these: anti-IgE, second part of TABLE 1. As to the method: (§2) Inhibition of degranulation was measured at both low and high cell density by quantifying the release of the granule specific factors tryptase, histamine and hexosaminidase. Inhibition of release and/or synthesis of lipid mediators was assessed by measuring the release of leukotriene LTC4 and inhibition of release and/or synthesis of cytokines was monitored by quantifying TNF-α, IL-6 and IL-13. Tryptase and hexosaminidase were quantified using fluorogenic substrates as described in their respective examples. […] The protocols of the various assays are provided below.
as §1

Assay [6] has the same test system. Put plainly: BMMC high cell density IgE activation: LTC4. To be noted: anti-IgE, second part of TABLE 1. The format is cell-based, mouse. The protocol:
as §2, §1

The test system is the same in assay [7]. Briefly: BMMC high cell density IgE activation: TNFalpha. The format is cell-based, mouse. To be noted: anti-IgE, second part of TABLE 1, read-out: BMMC anti-IgE TNF-alpha IC50. The protocol: as §2, §1
Assay [8] has the same test system. Briefly: BMMC high cell density IgE activation: IL-6. The format is cell-based, mouse. To be noted: anti-IgE, second part of TABLE 1. The protocol: as §2, §1
A further assay deals with Jurkat cells. Briefly: Jurkat toxicity, Cell Titer Glo assay. Format: cell-based. The conditions noted are these: 18 hours incubation. The protocol: Seed 50 μl cells (1×10^6/ml) into each well containing 50 μl compound. […] Shake plates for 1 minute to mix cells and compound. Incubate plates at 37° C. […] Next day, harvest 50 μl cells from each well, add to 50 μl Cell Titer Glo reagent ([…]). Shake plates for 1 minute. Read on luminometer.
(In general: In ATP-based viability assays light output follows the ATP content of the culture.)

In assay [9] the test system is cultured human mast cells (CHMC). Put plainly: CHMC high cell density IgE activation: hexos (hexosaminidase) release. The conditions noted are these: anti-IgE activation. The format is cell-based. The protocol: as §2
(§3) After sensitizing, cells are counted, pelleted (1000 rpm, 5-10 minutes), and resuspended at 1-2×10^6 cells/ml in MT buffer. Add 100 ul of cell suspension to each well and 100 ul of compound dilutions. The final vehicle concentration is 0.5% DMSO. Incubate at 37° C. (5% CO2) for 1 hour. After 1 hour of compound treatment, stimulate cells with 6× anti-IgE. Mix wells with the cells and allow plates to incubate at 37° C. (5% CO2) for one hour. After 1 hour incubation, pellet cells (10 minutes, 1000 RPM) and collect 200 ul per well of the supernatant, being careful not to disturb pellet. Place the supernatant plate on ice. During the 7-hour step (see next) perform tryptase assay on supernatant that had been diluted 1:500. Resuspend cell pellet in 240 ul of CM media containing 0.5% DMSO and corresponding concentration of compound. Incubate CHMC cells for 7 hours at 37° C. (5% CO2). After incubation, pellet cells (1000 RPM, 10 minutes) and collect 225 ul per well and place in −80° C. until ready to perform ELISAS. ELISAS are performed on appropriately diluted samples (determined empirically for each donor cell population so that the sample measurement falls within the standard curve) following the supplier's instructions.

Assay [10] has the same test system. Put plainly: CHMC high cell density IgE activation: tryptase. The format is cell-based. The conditions noted are these: anti-IgE activation. The protocol:
as §3

The test system is the same in assay [11]. Put plainly: CHMC high cell density IgE activation: histamine. The format is cell-based. The conditions noted are these: anti-IgE activation. As to the method: as §2, §3
For assay [12] the test system is unchanged. Put plainly: CHMC high cell density IgE activation: LTC4. Format: cell-based. The conditions noted are these: anti-IgE activation. As to the method:
as §2, §3

For assay [13] the test system is unchanged. Briefly: CHMC high cell density IgE activation: IL-13. The conditions noted are these: anti-IgE activation. Format: cell-based. The protocol: as §2, §3

Consider `O=C(O)c1cc(=O)c2c(OCC(O)COc3cccc4oc(C(=O)O)cc(=O)c34)cccc2o1` [Cromolyn], for which the “ovalbumin-induced airway hyperresponsiveness and inflammation” value in [1] (data not shown) is recorded as “able to block”.
Consider `CC(C)(C)n1nc(-c2ccc(Cl)cc2)c2c(N)ncnc21` [PP2, reference compound], for which the “phosphorylation of proteins downstream of LYN kinase” value in the assay on CHMC cells is reported as “inhibition”.
With `CNC(=O)COc1cccc(Nc2ncc(F)c(Nc3ccc4c(n3)NC(=O)CO4)n2)c1` [R921304, 5-Fluoro-N2-(3-methylaminocarbonylmethyleneoxyphenyl)-N4-[2H-pyrido[3,2-b]-1,4-oxazin-3(4H)-one-6-yl]-2,4-pyrimidinediamine], the IC50 in assay [2] is 85 nM; in assay [3], > 10000 nM. Further, in [1] (intranasal, 20 mg/kg, 10 consecutive days (Day 7 through Day 16)), the “ovalbumin-induced airway hyperresponsiveness to methacholine” value is “able to inhibit”.
Regarding `O=C(COc1cccc(Nc2ncc(F)c(Nc3ccc4c(c3)OCCO4)n2)c1)NCCO` [R926505, N4-(3,4-Ethylenedioxyphenyl)-5-fluoro-N2-[3-(2-hydroxyethylamino)carbonylmethyleneoxyphenyl]-2,4-pyrimidinediamine], the 50% inhibitory concentration (IC50) is 145 nM in [2]; > 10000 nM in assay [3]; < 220 nM in assay [4]; < 220 nM in assay [5]; < 220 nM in assay [6]; < 220 nM in assay [7]. For the same compound, the IC50 in assay [8] is < 220 nM; in the assay on Jurkat cells it was 4200 nM.
Turning to `CNCCOc1cccc(Nc2ncc(F)c(Nc3ccc4c(c3)OCCO4)n2)c1` [R926510, N4-(3,4-Ethylenedioxyphenyl)-5-fluoro-N2-[3-[2-(N-methylamino)ethyleneoxy]phenyl]-2,4-pyrimidinediamine], the IC50 in [2] was 440 nM; in assay [3], > 10000 nM; in [9] it was 921 nM; in [10], 1120 nM; in assay [11] it was 1670 nM; in assay [12], 417 nM. Further, the half-inhibitory concentration (IC50) in assay [13] was determined as 686 nM; in the assay with Jurkat cells it was 2770 nM.
On to `CCCC1O[C@@H]2C[C@H]3[C@@H]4CCC5=CC(=O)C=C[C@]5(C)[C@H]4[C@@H](O)C[C@]3(C)[C@]2(C(=O)CO)O1` (some centres unmarked) [budesonide], for which the methacoline-induced bronchocontriction entry in [1] is “inhibitory effect”.
For the compound `C[C@@H]1C[C@H]2[C@@H]3CCC4=CC(=O)C=C[C@]4(C)[C@@]3(F)[C@@H](O)C[C@]2(C)[C@@]1(O)C(=O)CO` [dexamethasone], the methacoline-induced bronchocontriction result in assay [1] is on record as “inhibitory effect”.

For orientation: IC50 means the concentration that gives 50% inhibition.
